# The supplement of paper PMC11061612
# Key:
# Assay in all cases: Bliss excess, mean over the matrix (fraction); higher = more synergy
# [1] = tested on: ONS-76 (Other Solid Carcinomas)
# Summary of the method: (§1)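 Cell lines grown in DMEM/F12 or RPMI with 10% FBS were plated in 1536-well plates and held 24 hours at 37°C, 5% CO2 before 72 hours of exposure to two-drug dose matrices, with DMSO typically at 0.2%. CellTiter-Glo 2.0 luminescence gave viability, which was converted to inhibition. Vehicle wells were set to 0 and blank wells to 1. Combination Emax is the second-highest inhibition in the matrix, and Bliss excess is the observed combination effect minus the expected EA + EB − EA·EB, where EA and EB are the single-agent effects.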
# [2] = tested on: NCI-H1650 (Lung Adenocarcinoma)
# Summary of the method: as §1
# [3] = tested on: NCI-H64 (Small Cell Lung Carcinoma)
# Summary of the method: as §1
# [4] = tested on: NCI-H1666 (Lung Adenocarcinoma)
# Summary of the method: as §1
# Hs-445 (Non-Cancerous) = tested on: Hs-445 (Non-Cancerous)
# Summary of the method: as §1
# [5] = tested on: SK-MES-1 (Squamous Cell Lung Carcinoma)
# Summary of the method: as §1
# LN-405 (Glioblastoma) = tested on: LN-405 (Glioblastoma)
# Summary of the method: as §1
# [6] = tested on: BICR22 (Oral Cavity Carcinoma)
# Summary of the method: as §1
# [7] = tested on: COLO-824 (Breast Carcinoma)
# Summary of the method: as §1
# [8] = tested on: CCK-81 (Colorectal Carcinoma)
# Summary of the method: as §1
# FU97 (Gastric Carcinoma) = tested on: FU97 (Gastric Carcinoma)
# Summary of the method: as §1
# [9] = tested on: JSC-1 (B-Cell Non-Hodgkin's Lymphoma)
# Summary of the method: as §1
# [10] = tested on: A3-KAW (B-Cell Non-Hodgkin's Lymphoma)
# Summary of the method: as §1
# PA-1 (Ovarian Carcinoma) = tested on: PA-1 (Ovarian Carcinoma)
# Summary of the method: as §1
# [11] = tested on: KARPAS-422 (B-Cell Non-Hodgkin's Lymphoma)
# Summary of the method: as §1
# A498 (Kidney Carcinoma) = tested on: A498 (Kidney Carcinoma)
# Summary of the method: as §1
# [12] = tested on: ECC10 (Gastric Carcinoma)
# Summary of the method: as §1
# [13] = tested on: CAPAN-2 (Pancreatic Carcinoma)
# Summary of the method: as §1
# [14] = tested on: COR-L311 (Small Cell Lung Carcinoma)
# Summary of the method: as §1
# [15] = tested on: A549 (Lung Adenocarcinoma)
# Summary of the method: as §1
SMILES,Bliss excess [1],Bliss excess [2],Bliss excess [3],Bliss excess [4],Bliss excess (Hs-445 (Non-Cancerous)),Bliss excess [5],Bliss excess (LN-405 (Glioblastoma)),Bliss excess [6],Bliss excess [7],Bliss excess [8],Bliss excess (FU97 (Gastric Carcinoma)),Bliss excess [9],Bliss excess [10],Bliss excess (PA-1 (Ovarian Carcinoma)),Bliss excess [11],Bliss excess (A498 (Kidney Carcinoma)),Bliss excess [12],Bliss excess [13],Bliss excess [14],Bliss excess [15]
"NC1(C(=O)N[C@@H](CCO)c2ccc(Cl)cc2)CCN(c2ncnc3[nH]ccc23)CC1 [Capivasertib] + CCN(CCO)CCCOc1ccc2c(Nc3cc(CC(=O)Nc4cccc(F)c4)[nH]n3)ncnc2c1 [AZD2811] (first compound max 10 µM, 7x7, partner max 1 µM)",-0.0191,0.0052,0.0427,-0.0482,-0.0895,0.0121,-0.0767,-0.0012,-0.0183,0.0065,-0.004,0.0082,-0.0369,0.0219,-0.0291,-0.0548,-0.039,-0.0213,-0.0461,-0.0365
"NC1(C(=O)N[C@@H](CCO)c2ccc(Cl)cc2)CCN(c2ncnc3[nH]ccc23)CC1 [Capivasertib] + COc1nnc2ccc(N3CCC(c4ccc(OCCN5CCN(C)C(=O)[C@H]5C)cc4)CC3)nn12 [AZD5153] (first compound max 10 µM, 7x7, partner max 1 µM)",0.0234,0.0322,-0.0011,-0.0136,-0.027,0.046,-0.013,0.024,0.0218,-0.0176,-0.0154,-0.0312,-0.0363,-0.0386,-0.0511,0.0826,0.0708,-0.0143,-0.0089,-0.0345
"NC1(C(=O)N[C@@H](CCO)c2ccc(Cl)cc2)CCN(c2ncnc3[nH]ccc23)CC1 [Capivasertib] + C[C@@H]1COCCN1C2=NC(=NC(=C2)C3(CC3)[S@](=N)(=O)C)C4=C5C=CNC5=NC=C4 [AZD6738] (first compound max 10 µM, 7x7, partner max 10 µM)",-0.0636,-0.0754,-0.0591,-0.0332,-0.0531,-0.058,-0.0413,-0.0608,-0.0655,-0.139,-0.0176,0.0036,-0.0165,-0.0938,-0.0575,0.0375,-0.0163,-0.0194,-0.0213,-0.0414
"NC1(C(=O)N[C@@H](CCO)c2ccc(Cl)cc2)CCN(c2ncnc3[nH]ccc23)CC1 [Capivasertib] + Cn1cnc2c(F)c(Nc3ccc(Br)cc3Cl)c(C(=O)NOCCO)cc21 [Selumetinib] (first compound max 10 µM, 7x7, partner max 10 µM)",0.0914,-0.0203,-0.0027,-0.0165,0.0479,0.0571,-0.0051,0.114,0.0166,0.0753,0.0653,0.0954,0.0622,-0.0114,0.0608,-0.0108,0.0563,0.0332,-0.0422,0.0052
"Cc1nc(Nc2ncc(C(=O)Nc3c(C)cccc3Cl)s2)cc(N2CCN(CCO)CC2)n1 [Dasatinib] + CC(=O)Nc1cccc(-n2c(=O)n(C3CC3)c(=O)c3c(Nc4ccc(I)cc4F)n(C)c(=O)c(C)c32)c1 [Trametinib] (first compound max 2 µM, 7x7, partner max 1 µM)",-0.0206,-0.0167,-0.0498,-0.0644,-0.0873,0.0198,-0.0347,-0.0037,-0.0774,-0.057,0.0039,-0.117,0.0863,0.013,-0.0371,-0.143,-0.0334,0.0749,-0.0295,0.0224
"COc1cccc2c1C(=O)c1c(O)c3c(c(O)c1C2=O)C[C@@](O)(C(=O)CO)C[C@@H]3O[C@H]1C[C@H](N)[C@H](O)[C@H](C)O1 [Doxorubicin] + Cc1cc2ncnn2cc1Nc1ncc2c(n1)n(C1CCOCC1)c(=O)n2C [AZD7648] (first compound max 1 µM, 7x7, partner max 10 µM)",0.0314,-0.0002,0.0063,0.0129,0.102,0.0477,-0.0125,0.0744,0.0742,0.0481,-0.0094,0.063,0.0751,0.0617,0.0699,0.0163,0.0602,-0.0419,0.0893,0.0564
"COc1cc2ncnc(Nc3ccc(F)c(Cl)c3)c2cc1OCCCN1CCOCC1 [Gefitinib] + CC(C)n1c(=O)n(C)c2cnc3cc(F)c(-c4ccc(OCCCN5CCCCC5)nc4)cc3c21 [AZD1390] (first compound max 10 µM, 7x7, partner max 0.3 µM)",-0.0386,-0.0477,-0.022,-0.0064,-0.0356,-0.0755,-0.076,-0.013,-0.0795,-0.072,-0.0177,-0.0911,-0.0098,-0.0949,-0.0363,-0.11,-0.0231,-0.0652,-0.0545,-0.0544
"CS(=O)(=O)CCNCc1ccc(-c2ccc3ncnc(Nc4ccc(OCc5cccc(F)c5)c(Cl)c4)c3c2)o1 [Lapatinib] + C[C@@H](Oc1cc(-c2cnn(C3CCNCC3)c2)cnc1N)c1c(Cl)ccc(F)c1Cl [Crizotinib] (first compound max 10 µM, 7x7, partner max 10 µM)",-0.0667,0.0253,-0.0564,-0.0698,0.0147,-0.0288,-0.0158,-0.0388,0.002,-0.0255,-0.0144,-0.0008,0.0316,0.0128,-0.0649,-0.0592,-0.0434,-0.0341,-0.0024,-0.0606
"CC(=O)c1c(C)c2cnc(Nc3ccc(N4CCNCC4)cn3)nc2n(C2CCCC2)c1=O [Palbociclib] + CC1(C)CCC(CN2CCN(c3ccc(C(=O)NS(=O)(=O)c4ccc(NCC5CCOCC5)c([N+](=O)[O-])c4)c(Oc4cnc5[nH]ccc5c4)c3)CC2)=C(c2ccc(Cl)cc2)C1 [Venetoclax] (first compound max 10 µM, 7x7, partner max 1 µM)",-0.0115,-0.051,-0.0185,-0.069,0.119,-0.0114,-0.0391,-0.0319,0.0365,-0.0761,-0.0281,-0.0127,-0.0332,0.0133,0.0434,-0.021,0.0269,-0.0473,-0.0186,-0.0056
"CC(=O)c1c(C)c2cnc(Nc3ccc(N4CCNCC4)cn3)nc2n(C2CCCC2)c1=O [Palbociclib] + Cc1c2c(nn1C)CSCc1cc(n(C)n1)CSc1cc(c3ccccc3c1)OCCCc1c(C(=O)O)n(C)c3c-2c(Cl)ccc13 [AZD5991] (first compound max 10 µM, 7x7, partner max 1 µM)",-0.0372,-0.0409,-0.0049,-0.0198,-0.0598,-0.0463,-0.0445,-0.0568,-0.0768,0.0565,0.0142,-0.0567,-0.0158,0.0052,-0.0221,-0.0779,0.0435,-0.0593,-0.0139,0.0338
"CC(=O)c1c(C)c2cnc(Nc3ccc(N4CCNCC4)cn3)nc2n(C2CCCC2)c1=O [Palbociclib] + Cn1cnc2c(F)c(Nc3ccc(Br)cc3Cl)c(C(=O)NOCCO)cc21 [Selumetinib] (first compound max 10 µM, 7x7, partner max 10 µM)",0.0132,-0.0775,-0.014,-0.0183,-0.0852,-0.0088,-0.0566,0.102,-0.0652,0.0832,0.0707,0.0842,0.182,-0.0312,0.062,-0.0228,-0.0111,-0.0199,-0.0334,-0.0413
"COc1cccc(OCCCN)c1-c1cc(Nc2cnc(C#N)cn2)n[nH]1 [Prexasertib] + C=CCn1c(=O)c2cnc(Nc3ccc(N4CCN(C)CC4)cc3)nc2n1-c1cccc(C(C)(C)O)n1 [AZD1775] (first compound max 1 µM, partner max 1 µM)",-0.0299,0.0005,0.0127,-0.0629,-0.0366,-0.0425,0.0469,0.0175,0.0432,0.0523,0.0052,0.0682,0.0424,0.03,0.0841,-0.0716,0.115,-0.0231,0.0559,0.139
"COc1cccc(OCCCN)c1-c1cc(Nc2cnc(C#N)cn2)n[nH]1 [Prexasertib] + CCc1c2c(nc3ccc(O)cc13)-c1cc3c(c(=O)n1C2)COC(=O)[C@]3(O)CC [SN-38] (first compound max 1 µM, 7x7, partner max 0.3 µM)",-0.0961,-0.0339,0.0021,-0.0269,-0.0189,-0.0507,0.0786,-0.0684,0.101,-0.0968,-0.032,-0.0739,0.0247,-0.0364,0.0037,-0.105,0.0145,-0.0205,-0.0058,-0.0361
"COc1cccc(OCCCN)c1-c1cc(Nc2cnc(C#N)cn2)n[nH]1 [Prexasertib] + CN(C)CCCOc1ccc(-c2ccc3ncc4c(c3c2)n(C2CCOCC2)c(=O)n4C)cn1 [AZD0156] (first compound max 1 µM, 7x7, partner max 1 µM)",-0.0148,-0.0451,-0.0359,-0.0291,-0.0286,-0.0471,0.0013,-0.0429,-0.0047,-0.0133,-0.0321,-0.0111,0.0134,0.0031,0.0128,0.034,0.0071,0.0147,-0.0532,-0.0276
"COc1cccc(OCCCN)c1-c1cc(Nc2cnc(C#N)cn2)n[nH]1 [Prexasertib] + C[C@@H]1COCCN1C2=NC(=NC(=C2)C3(CC3)[S@](=N)(=O)C)C4=C5C=CNC5=NC=C4 [AZD6738] (first compound max 1 µM, 7x7, partner max 10 µM)",-0.0803,0.0094,-0.0184,0.0338,-0.0661,-0.0205,-0.136,-0.0153,-0.0675,-0.0277,-0.0427,-0.0089,0.0104,-0.0438,-0.0734,-0.0514,0.0929,-0.003,-0.0363,0.0241
